Experimental data from patent publication US11331368B2, “Angiotensin receptor agonists and uses thereof” (Monash University, priority 2017, dated 2022).

Tests used:
human AT1R = target: T1, human AT1R (Homo sapiens, UniProt P30556); assay: Competition radioligand binding (125I-Sar1-Ile8-AngII) in AT1R-transfected HEK-293 cells
T1 construct: expressed in transfected cells
T1 sequence (P30556 1-359): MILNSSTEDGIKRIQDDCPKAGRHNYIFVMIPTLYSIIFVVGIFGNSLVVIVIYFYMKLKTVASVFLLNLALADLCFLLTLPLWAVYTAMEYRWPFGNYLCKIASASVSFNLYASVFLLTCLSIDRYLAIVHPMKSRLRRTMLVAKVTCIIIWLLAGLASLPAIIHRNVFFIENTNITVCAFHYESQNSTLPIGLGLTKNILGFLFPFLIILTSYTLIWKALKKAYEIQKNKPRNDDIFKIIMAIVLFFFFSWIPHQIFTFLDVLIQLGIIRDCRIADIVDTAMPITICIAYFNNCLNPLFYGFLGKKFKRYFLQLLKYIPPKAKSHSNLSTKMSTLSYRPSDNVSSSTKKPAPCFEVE

human AT2R = target: T2, human AT2R (Homo sapiens, UniProt P50052); assay: Competition radioligand binding (125I-Sar1-Ile8-AngII) in AT2R-transfected HEK-293 cells; details: for Fold AT2R selectivity: AT2R over AT1R, Table 3; for binding at AT2R (displacement of 125I-Sar1-Ile8-AngII), in words: transfected HEK-293 cells
T2 construct: expressed in transfected cells
T2 sequence (P50052 1-363): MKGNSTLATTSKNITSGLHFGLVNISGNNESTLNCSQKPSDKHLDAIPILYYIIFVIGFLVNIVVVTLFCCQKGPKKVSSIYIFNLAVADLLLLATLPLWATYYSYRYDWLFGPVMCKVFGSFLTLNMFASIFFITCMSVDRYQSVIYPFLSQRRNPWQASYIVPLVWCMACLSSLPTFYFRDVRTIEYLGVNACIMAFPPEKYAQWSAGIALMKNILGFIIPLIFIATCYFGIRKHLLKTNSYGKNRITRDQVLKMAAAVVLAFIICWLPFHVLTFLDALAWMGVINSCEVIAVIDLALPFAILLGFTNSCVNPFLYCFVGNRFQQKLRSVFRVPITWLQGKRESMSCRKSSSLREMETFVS
Description: This will lead to the generation of IC50 values that determine the relative ability of test compounds to interact with both Angiotensin receptors.
Cells were grown to approximately 80% confluence before being re-plated into 48 well plates at 1×10^5 cells/well and grown for 48 hours at 37° C. for a whole cell competition binding assay. [125I]-Sar1Ile8Ang II at 50,000 cpm, incubated for 45 minutes at 37° C., in the absence or presence of unlabeled ligands, prepared in binding buffer (DMEM, 0.1% BSA), were used in the competition assays at concentrations ranging from 1 μM to 10 μM. For each experiment, each ligand concentration was tested in duplicate or triplicate, and each experiment was repeated at least 3 separate times. […] The ability of each ligand to inhibit specific binding of [125I]-Sar1Ile8Ang II was measured on a gamma counter with all counts corrected for NSB.

[1] = test system: male FVB/N mice on high salt diet, heart; assay: High salt (5%) diet intervention model, heart; assay type: in vivo, mouse; details: for cardiac fibrosis by hydroxyproline analysis (LV collagen content) / cardiac oxidative stress (DHE staining) / myofibroblast differentiation in heart (α-SMA): 75 pmol/kg/min s.c.; for cardiac fibrosis by hydroxyproline analysis (LV collagen content) / cardiac oxidative stress (DHE staining) / myofibroblast differentiation in heart (α-SMA) / expression of P-IκBα (marker for NFκB activation) in heart: weeks 5-8; for expression of P-IκBα (marker for NFκB activation) in heart: peptides 75 pmol/kg/min s.c., captopril 3 mg/kg/day; for expression of P-IκBα (marker for NFκB activation) in heart / cardiac fibrosis (picrosirius red): Cand 2 mg/kg/day; for cardiac fibrosis (picrosirius red): weeks 5-8 of high salt diet, peptides 75 pmol/kg/min s.c. mini-pump, captopril 3 mg/kg/day in drinking water
Description: (§1) C) In the intervention (or reversal) model, male FVB/N mice were treated with selective AT2Rs agonists after the establishment of cardiovascular disease using a high salt diet, in order to reverse cardiovascular pathologies. In some experiments, the ACE inhibitor captopril (dose) or the ARB candesartan cilexetil (dose) were given for 4 weeks in drinking water. Organs examined included heart, kidney and liver and these were compared to either untreated mice or high salt-fed mice that were treated with saline.
A high-salt diet (5% salt) model is a clinically relevant and disease-reversal model which can replicate the high salt intake by humans which is currently a growing problem in the developed countries. High salt intake induces changes in the cardiovascular system and induces remodelling and fibrosis in the heart, kidney and liver.
(§2) Mice were placed on either a normal rodent diet (0.35% NaCl) which acted as control or a high salt diet (5% sodium in food chow) for 8 weeks. After 4 weeks, mice were also treated subcutaneously (via osmotic mini-pump) with either saline or an AT2R agonist (75 pmol/kg/min subcutaneously) for 4 weeks. Mice continued to be fed a high salt diet whilst receiving these treatments.
All mice which underwent surgery were anaesthetized with Isoflurane (Isorrane) (5% induction and 2.5% maintenance) and an incision made in the midscapular region through which osmotic minipumps (Alzet model 2004, Alza Corp) were inserted for subcutaneous drug administration. The incision area was sutured with 6/0 DY silk (Dynek Pty Ltd) and antibiotic powder applied (Cicatrin, Pfizer) followed by intramuscular injection of the analgesic Cartrophen (0.1 ml of a 1.5 mg/ml stock solution; Biopharm Australia). Systolic blood pressure (SBP) was measured using non-invasive tail-cuff plethysmography apparatus (MC4000 Blood Pressure Analysis System, Hatteras Instrument Inc) before drug treatment (week 0), and then fortnightly. At the end of the 8 week treatment period mice were weighed before being killed by overdose of isoflurane inhalation and cervical dislocation.
(§3) To measure collagen deposition, frozen sections of heart, kidney or aorta (all 5 μm thickness) were air dried for 10 minutes and were brought through 3 times xylene (2 minutes each), and 3 times absolute alcohol washes before being rinsed in tap H2O for 30 seconds. Staining with an optimal concentration of picrosirius red (in this instance 0.05% picrosirius red diluted in saturated picric acid) was performed and left for an hour. Sections were then rinsed in water and differentiated in 0.01M HCl for 2 minutes, followed by dehydration via 3 times absolute alcohol washes. Then, slides were brought through 3 times xylene washes before being cover slipped according to standard histological techniques using DPX as the mounting medium. Images were taken under ×20 magnification, using bright field (Olympus, BX51) and circularized polarized light microscopy (DM IRB, Leica) while percentage of positive interstitial collagen staining per total field of view was quantified using ImageJ 1.46 software (Java, NIH), and averaged out from a total of eight views as the final percentage collagen content in a particular animal.
Immunostaining was performed on 5 μm thick transverse frozen heart sections. These sections were air dried and fixed in ice-cold acetone for approximately 15 minutes before washing with 0.01M PBS buffer (3×10 minutes). Sections were then incubated with 10% goat serum in 0.01M PBS for 30 minutes to reduce non-specific binding. If the primary antibody is raised in goat, this pre-blocked medium is substituted with 5% BSA in PBS and Triton-X. Next, blocking buffers were removed and the primary antibody to respective markers were applied overnight at room temperature based on the following dilution and origin of the antibodies: α-SMA (1:500, Abcam), Vimentin (1:500, Santa Cruz), P-IκBα (1:200, Cell Signalling), F4/80 macrophage (1:100, Serotec). […]

[2] = test system: male FVB/N mice on high salt diet, kidney; assay: High salt (5%) diet intervention model, kidney; assay type: in vivo, mouse; details: 75 pmol/kg/min s.c., weeks 5-8
Description: as §1, §2, §3
Kidney sections used either picrosirius red staining as described above or using Mason's Trichrome staining as described below.
Formalin fixed, paraffin embedded kidneys were sectioned at thickness of 4 μm and were stained with Masson's trichrome according to standard procedures for analysis of kidney fibrosis. […] Sections were re-fixed in Bouin's solution for 1 hour at 56° C. to improve staining quality then rinsed in running tap water for 5-10 minutes to remove yellow colour. Following this, sections were stained in Weigert's iron hematoxylin working solution for 10 minutes. Rinsed in running warm tap water for 10 minutes. Washed in distilled water. Stained in Biebrich scarlet-acid fuchsin solution for 10-15 minutes. Washed in distilled water. Differentiated in phosphomolybdic-phosphotungstic acid solution for 10-15 minutes or until collagen was no longer red. Sections were transferred directly (without rinse) to aniline blue solution and stained for 5-10 minutes. Rinsed briefly in distilled water and differentiated in 1% acetic acid solution for 2-5 minutes. Washed in distilled water. […] Mounted with DPX mounting medium.
Quantification of kidney fibrosis was performed using images captured with the Aperio scanner (Monash Histology Platform, Monash University), with ×5 magnification. Each kidney section had 5 different fields of view photographed at this magnification. Percentage of tubulointerstitial collagen was analysed and quantified using ImageJ 1.48 software (Java, NIH), and the percentage from 5 random fields of view were averaged for final percentage of collagen for that particular animal. All analysis of collagen expression was conducted in a blinded fashion.

[3] = test system: male FVB/N mice on high salt diet, kidney; assay: High salt (5%) diet intervention model, kidney; assay type: in vivo, mouse; details: 75 pmol/kg/min s.c., weeks 5-8; remark: listed apart in the source
[4] = test system: human cardiac fibroblasts; assay: TGF-β1-induced collagen production in human cardiac fibroblasts (Western blot); assay type: cell-based; details: co-treated with TGF-β1 for 3 days, increasing concentrations up to 1 μM
Description: D) Human cardiac fibroblasts (HCFs) were treated with TGFβ1 to induce a pro-fibrotic phenotype state in cell culture, exemplified by increased collagen-1 production, measured by Western blot. HCFs were treated with TGFβ1 alone, or in the presence of an AT2R agonist for 3 days, and the ability of AT2R agonists to inhibit TGFβ1-induced collagen-1 production was measured.
Commercially available human cardiac fibroblasts (HCF, Catalog #6300, Sciencell, Calif., USA) were grown in T75 flask maintained in an incubator at 37° C., 5% CO2. Complete media composition: M199 media (#11150-059, life technologies)+10% FBS (#10437-028, life technologies)+1% Fibroblast Growth Supplement-2 (#2382, ScienCell)+1% penicillin/streptomycin 10,000 U/ml antibiotics (#15140-122, Life Technologies). Fresh complete media was replenished every alternate day until culture reached 70% confluence in which media is replenished daily until it reached approximately 90% confluence in order to passage/subculture. To subculture, media was discarded and culture was rinsed with warm PBS. After which, culture was detached using warm 0.05% Trypsin+EDTA with gentle swirling of flask to make sure cells were not adherent to surface of flask. Trypsin was then neutralized with complete media and suspension was then transferred into a new falcon tube and centrifuged at 1000 rpm for 5 minutes. Supernatant was discarded and pellet of cells were resuspended with 5 ml of complete media, followed by cell counting. For subculturing/passaging, 1 million HCFs are placed into a T75 flask. For Picrosirius Red (PSR) staining or immunofluorescence experiments, 100 k cells were loaded per well in a 24 well plate lined with round coverslips. […]
Once treatment is complete, cells were washed with warm PBS and detached using Accutase (A6964, Sigma), with 5 minutes incubation at 37° C. […] The supernatant (˜20 ul) was transferred to a new tube and protein concentrations were measured using Biorad Lowry protein assay. Protein quantification of respective markers were performed via standard western blot analysis. […]

Row | binding at AT1R (displacement of 125I-Sar1-Ile8-AngII), in words (human AT1R) | Fold AT2R selectivity (human AT2R) | binding at AT2R (displacement of 125I-Sar1-Ile8-AngII), in words (human AT2R) | AT2R/AT1R selectivity ratio (human AT2R; approximate or conservatively estimated, listed as β-Pro^7-Trp^8-Ang III) | Compound | cardiac fibrosis by hydroxyproline analysis (LV collagen content) [1] | cardiac oxidative stress (DHE staining) [1] | myofibroblast differentiation in heart (α-SMA) [1] | expression of P-IκBα (marker for NFκB activation) in heart [1] | cardiac fibrosis (picrosirius red) [1] | kidney glomerular fibrosis (picrosirius red) [2] | kidney tubulointerstitial fibrosis (picrosirius red) [2] | macrophage infiltration in kidney (F4/80) [3] | renal fibrosis by hydroxyproline analysis [3] | renal inflammation (phospho-IκBα expression) [3] | TGF-β1-induced collagen production [4]
1 | bind poorly | >18,000 fold | high affinity | – | D-Arg-Val-Tyr-Ile-His-β-Pro-Trp [D-Arg-βPro-Trp-8-Ang III] | reversed the pro-fibrotic effects of high salt in the heart | reversed the oxidative stress effects of high salt in the heart | reversed myofibroblast differentiation | reversed | reversed cardiac fibrosis | reversed the glomerular fibrosis caused by high salt in the kidney | reversed the tubulointerstitial fibrosis caused by high salt in the kidney | reversed high salt-induced macrophage infiltration in the kidney | reversed the pro-fibrotic effects of high salt in the kidney | reversed high salt-induced renal inflammation in the kidney | –
2 | bind poorly | >400,000 fold | high affinity | > 400,000 fold | Arg-Val-Tyr-Ile-His-β-Pro-Trp [βPro-Trβ-8-Ang III] | reversed the pro-fibrotic effects of high salt in the heart | reversed the oxidative stress effects of high salt in the heart | reversed myofibroblast differentiation | reversed | reversed cardiac fibrosis | reversed the glomerular fibrosis caused by high salt in the kidney | reversed the tubulointerstitial fibrosis caused by high salt in the kidney | reversed high salt-induced macrophage infiltration in the kidney | reversed the pro-fibrotic effects of high salt in the kidney | reversed high salt-induced renal inflammation in the kidney | –
3 | – | – | – | – | CC[C@H](C)[C@H](NC(=O)[C@H](Cc1ccc(O)cc1)NC(=O)[C@@H](NC(=O)C[C@H](CCCNC(=N)N)NC(=O)[C@@H](N)CC(=O)O)C(C)C)C(=O)N[C@@H](Cc1c[nH]cn1)C(=O)N1CCC[C@H]1C(=O)N[C@@H](Cc1ccccc1)C(=O)O [βArg-Ang II, Asp-β-Arg-Val-Tyr-Ile-His-Pro-Phe] | – | – | – | – | – | – | – | – | – | – | inhibited the TGF-β1-mediated pro-fibrotic phenotype
